{
  "source": "patent US10391201B2",
  "about": "“Gene therapy” (Ospedale San Raffaele S.r.l., priority 2014, dated 2019)",
  "tested_on": "CB-derived CD34+ cells",
  "experiment": "LV replication intermediates (late-RT, 2LTR circles, integrated copies) in CB-derived CD34+ cells",
  "assay_type": "cell-based, human",
  "procedure": "(§1) CsA and rapamycin act on distinct steps on the LV life cycle. […] The LV genome fate was tracked by measuring late-RT product (A) and 2LTR circles (B) 24 hours after transduction and integrated proviral copies 2 weeks after transduction (C). Data represent the mean±SEM of four independent experiments expressed as fold versus DMSO WT (A,B) or as absolute copies/cell (C). D. IDLV transduction efficiency was measured 3 days after transduction by FACS and by measuring the retrotranscribed LV DNA products by PCR. Data are the mean±SEM of three independent experiments. P values are for one-way with Bonferonni's multiple comparison. *P<0.05, **P<0.01, ****P<0.0001.\nas §1, with “FACS (left panel)” for “FACS”, “PCR (right panel).” for “PCR.”, “P values are for one-way with Bonferonni's multiple comparison. *P<0.05, **P<0.01, ****P<0.0001.” left out\nTo analyse viral replication intermediates, transduced cells were washed and resuspended in Monini lysis buffer (0.1% polyoxyethylene 10 lauryl ether (Sigma), 0.1 mg/mL proteinase K (Promega)) (25 μL per 1×10^5 cells), incubated at 65° C. for 2 h and heat inactivated at 94° C. for 15 min (Monini, P. et al. (1999) Blood 93: 4044-58). […] Late-RT and 2LTR circles were measured by semi-quantitative Taqman assay with primers described below and normalised using the human TERT gene. Results are expressed as fold versus the DMSO control, as described above.\nDNA from cell cultures was extracted using a Maxwell 16 instrument (Promega) or Blood & Cell Culture DNA Micro Kit (Qiagen). […] Vector copy numbers and replication intermediates were normalised to genomic DNA content, which was assessed using the human TERT gene. […]",
  "data": [
    {"smiles": "CO[C@H]1C[C@@H]2CC[C@@H](C)[C@@](O)(O2)C(=O)C(=O)N2CCCC[C@H]2C(=O)O[C@H]([C@H](C)C[C@@H]2CC[C@@H](O)[C@H](OC)C2)CC(=O)[C@H](C)/C=C(\\C)[C@@H](O)[C@@H](OC)C(=O)[C@H](C)C[C@H](C)/C=C/C=C/C=C/1C", "note": "[rapamycin, Rapamycin]", "values": [
      {"measurement": "2-long-terminal-repeat (2LTR) circles vs DMSO", "setting": "10 μg/ml rapamycin, 24 hours after transduction", "value": "consequent increase"},
      {"measurement": "late-RT products vs DMSO, independently of the CA", "setting": "WT, A88T or A92E LV, 10 μg/ml rapamycin, 24 hours after transduction", "value": "two to threefold increase"},
      {"measurement": "integrated vector (proviral) copies vs DMSO", "setting": "all vectors, 2 weeks after transduction", "value": "increase"}
    ]}
  ]
}
